Laboratory results from PubChem BioAssay AID1963869 (Molecular Pharmacology Branch, DTP, NCI, 2024).

Tested on: KRAS patient-derived spheroids with HUVEC/MSC, viability
Assay: Anticancer human tumor 323965-272-R-J2-PDC patient-derived pancreatic carcinoma cell line growth inhibition [KRAS2]
Settings: for viability, T/C: stronger effect = lower value
Summary of the method: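 Combination screen of spheroid viability in tumor-cell co-cultures with endothelial (HUVEC) and mesenchymal stem cell stroma. Each agent was tested in half-log dilutions, topping at clinical Cmax or at 10 microM without a known Cmax.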

[1] = curve of first compound, second compound 0.1 µM
[2] = curve of first compound, second compound 0.316 µM
[3] = curve of first compound, second compound 1 µM
[4] = curve of first compound, second compound 3.16 µM
[5] = curve of first compound, second compound 10 µM
[6] = second compound 0.1 µM, first compound 0.0316 µM
[7] = second compound 0.1 µM, first compound 0.1 µM
[8] = second compound 0.1 µM, first compound 0.316 µM
[9] = second compound 0.1 µM, first compound 1 µM
[10] = second compound 0.1 µM, first compound 3.16 µM
[11] = second compound 0.1 µM, first compound 10 µM
[12] = second compound 0.316 µM, first compound 0.0316 µM
[13] = second compound 0.316 µM, first compound 0.1 µM
[14] = second compound 0.316 µM, first compound 0.316 µM
[15] = second compound 0.316 µM, first compound 1 µM
[16] = second compound 0.316 µM, first compound 3.16 µM
[17] = second compound 0.316 µM, first compound 10 µM
[18] = second compound 1 µM, first compound 0.0316 µM
[19] = second compound 1 µM, first compound 0.1 µM
[20] = second compound 1 µM, first compound 0.316 µM
[21] = second compound 1 µM, first compound 1 µM
[22] = second compound 1 µM, first compound 3.16 µM
[23] = second compound 1 µM, first compound 10 µM
[24] = second compound 3.16 µM, first compound 0.0316 µM
[25] = second compound 3.16 µM, first compound 0.1 µM
[26] = second compound 3.16 µM, first compound 0.316 µM
[27] = second compound 3.16 µM, first compound 1 µM
[28] = second compound 3.16 µM, first compound 3.16 µM
[29] = second compound 3.16 µM, first compound 10 µM
[30] = second compound 10 µM, first compound 0.0316 µM
[31] = second compound 10 µM, first compound 0.1 µM
[32] = second compound 10 µM, first compound 0.316 µM
[33] = second compound 10 µM, first compound 1 µM
[34] = second compound 10 µM, first compound 3.16 µM
[35] = second compound 0.1 µM, first compound 0.00316 µM
[36] = second compound 0.1 µM, first compound 0.01 µM
[37] = second compound 0.316 µM, first compound 0.00316 µM
[38] = second compound 0.316 µM, first compound 0.01 µM
[39] = second compound 1 µM, first compound 0.00316 µM
[40] = second compound 1 µM, first compound 0.01 µM
[41] = second compound 3.16 µM, first compound 0.00316 µM
[42] = second compound 3.16 µM, first compound 0.01 µM
[43] = second compound 10 µM, first compound 0.00316 µM
[44] = second compound 10 µM, first compound 0.01 µM
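Note: spheroids exposed to agents for 7 days.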
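Throughout, for viability, T/C: 100% = DMSO vehicle control viability.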

COc1cc2nccc(Oc3ccc(NC(=O)C4(C(=O)Nc5ccc(F)cc5)CC4)cc3)c2cc1OC + CC1OCC2(CCN(c3cnc(Sc4ccnc(N)c4Cl)c(N)n3)CC2)C1N
IC50 [1]: > 10 µM | IC50 [2]: > 10 µM | IC50 [3]: < 0.0316 µM | IC50 [4]: < 0.0316 µM | IC50 [5]: < 0.0316 µM | viability, T/C [6]: 80.4% | viability, T/C [7]: 80.5% | viability, T/C [8]: 74.9% | viability, T/C [9]: 87.4% | viability, T/C [10]: 79.8% | viability, T/C [11]: 73.5% | viability, T/C [12]: 58.7% | viability, T/C [13]: 65.4% | viability, T/C [14]: 65.5% | viability, T/C [15]: 64.6% | viability, T/C [16]: 71.9% | viability, T/C [17]: 63% | viability, T/C [18]: 46.9% | viability, T/C [19]: 42.4% | viability, T/C [20]: 46.9% | viability, T/C [21]: 58.4% | viability, T/C [22]: 52.8% | viability, T/C [23]: 45.4% | viability, T/C [24]: 35.1% | viability, T/C [25]: 36.1% | viability, T/C [26]: 36.3% | viability, T/C [27]: 35.5% | viability, T/C [28]: 35.2% | viability, T/C [29]: 29.8% | viability, T/C [30]: 27.4% | viability, T/C [31]: 28.8% | viability, T/C [32]: 26.8% | viability, T/C [33]: 30.3% | viability, T/C [34]: 33.5% | viability, T/C (second compound 10 µM, first compound 10 µM): 27.3%

CCN1CCN(Cc2ccc(Nc3ncc(F)c(-c4cc(F)c5nc(C)n(C(C)C)c5c4)n3)nc2)CC1 + CNCc1ccccc1-c1csc(C(C)Nc2nc(C)nc3cc(OC)c(OC)cc23)c1
IC50 [1]: > 1 µM | IC50 [2]: > 1 µM | IC50 [3]: > 1 µM | IC50 [4]: 0.127 µM | IC50 [5]: < 0.00316 µM | viability, T/C [35]: 91.5% | viability, T/C [36]: 85.2% | viability, T/C [6]: 59.8% | viability, T/C [7]: 47% | viability, T/C [8]: 51.5% | viability, T/C [9]: 59.7% | viability, T/C [37]: 97.3% | viability, T/C [38]: 93.3% | viability, T/C [12]: 65.7% | viability, T/C [13]: 56% | viability, T/C [14]: 53% | viability, T/C [15]: 56% | viability, T/C [39]: 94.2% | viability, T/C [40]: 92.8% | viability, T/C [18]: 72.6% | viability, T/C [19]: 71.8% | viability, T/C [20]: 61.8% | viability, T/C [21]: 57.7% | viability, T/C [41]: 80% | viability, T/C [42]: 79.2% | viability, T/C [24]: 68.4% | viability, T/C [25]: 53.4% | viability, T/C [26]: 33% | viability, T/C [27]: 1.27% | viability, T/C [43]: 0.23% | viability, T/C [44]: 0.23% | viability, T/C [30]: 0.18% | viability, T/C [31]: 0.16% | viability, T/C [32]: 0.16% | viability, T/C [33]: 0.18%

COc1cc2nccc(Oc3ccc(NC(=O)C4(C(=O)Nc5ccc(F)cc5)CC4)cc3)c2cc1OC + C=CC(=O)N1CCN(c2nc(OCC3CCCN3C)nc3c2CCN(c2cccc4cccc(C)c24)C3)CC1CC#N
IC50 (curve of first compound, second compound 0.0316 µM): > 10 µM | IC50 [1]: > 10 µM | IC50 [2]: > 10 µM | IC50 [3]: > 10 µM | IC50 [4]: < 0.0316 µM | viability, T/C (second compound 0.0316 µM, first compound 0.0316 µM): 69% | viability, T/C (second compound 0.0316 µM, first compound 0.1 µM): 71.3% | viability, T/C (second compound 0.0316 µM, first compound 0.316 µM): 77.3% | viability, T/C (second compound 0.0316 µM, first compound 1 µM): 76.8% | viability, T/C (second compound 0.0316 µM, first compound 3.16 µM): 74.6% | viability, T/C (second compound 0.0316 µM, first compound 10 µM): 80.3% | viability, T/C [6]: 55.9% | viability, T/C [7]: 62.1% | viability, T/C [8]: 64.6% | viability, T/C [9]: 67.3% | viability, T/C [10]: 65.9% | viability, T/C [11]: 64.3% | viability, T/C [12]: 58.9% | viability, T/C [13]: 59.6% | viability, T/C [14]: 65.3% | viability, T/C [15]: 68.8% | viability, T/C [16]: 64.8% | viability, T/C [17]: 70.1% | viability, T/C [18]: 59.3% | viability, T/C [19]: 63.5% | viability, T/C [20]: 62.8% | viability, T/C [21]: 69.9% | viability, T/C [22]: 66.5% | viability, T/C [23]: 58.5% | viability, T/C [24]: 21.5% | viability, T/C [25]: 20.1% | viability, T/C [26]: 8.93% | viability, T/C [27]: 3.74% | viability, T/C [28]: 3.65% | viability, T/C [29]: 0.28%

CCN1CCN(Cc2ccc(Nc3ncc(F)c(-c4cc(F)c5nc(C)n(C(C)C)c5c4)n3)nc2)CC1 + COc1cc2nc(C)nc(NC(C)c3cc(N)cc(C(F)(F)F)c3)c2cc1OC1CCOC1
IC50 [1]: 0.0902 µM | IC50 [2]: 0.0259 µM | IC50 [3]: 0.0326 µM | IC50 [4]: 0.0219 µM | IC50 [5]: 0.0756 µM | viability, T/C [35]: 85.5% | viability, T/C [36]: 78.3% | viability, T/C [6]: 59.5% | viability, T/C [7]: 48.2% | viability, T/C [8]: 44.4% | viability, T/C [9]: 51.4% | viability, T/C [37]: 75.2% | viability, T/C [38]: 59% | viability, T/C [12]: 50% | viability, T/C [13]: 41.7% | viability, T/C [14]: 37.8% | viability, T/C [15]: 48.3% | viability, T/C [39]: 65.7% | viability, T/C [40]: 59.9% | viability, T/C [18]: 51.4% | viability, T/C [19]: 42.9% | viability, T/C [20]: 41% | viability, T/C [21]: 48.3% | viability, T/C [41]: 85.2% | viability, T/C [42]: 64% | viability, T/C [24]: 43.8% | viability, T/C [25]: 39.1% | viability, T/C [26]: 32.7% | viability, T/C [27]: 49.5% | viability, T/C [43]: 86.6% | viability, T/C [44]: 74% | viability, T/C [30]: 53.4% | viability, T/C [31]: 48.7% | viability, T/C [32]: 39.9% | viability, T/C [33]: 22.4%

CC(C)NCC(C(=O)N1CCN(c2ncnc3c2C(C)CC3O)CC1)c1ccc(Cl)cc1 (configuration not stated)
viability, T/C (compound 0.0316 µM): 97.7% [middle of 5 runs] | viability, T/C (compound 0.1 µM): 94% [middle of 5 runs] | viability, T/C (compound 0.316 µM): 84.9% [middle of 5 runs] | viability, T/C (compound 1 µM): 64.6% [middle of 5 runs] | viability, T/C (compound 3.16 µM): 50.4% [middle of 5 runs] | viability, T/C (compound 10 µM): 41.8% [middle of 5 runs] | IC50 (curve of compound): 2.93 µM [middle of 5 runs]

CC(=O)OC12COC1CC(O)C1(C)C(=O)C(O)C3=C(C)C(OC(=O)C(O)C(NC(=O)OC(C)(C)C)c4ccccc4)CC(O)(C(OC(=O)c4ccccc4)C21)C3(C)C (configuration not stated) + CNCc1ccccc1-c1csc(C(C)Nc2nc(C)nc3cc(OC)c(OC)cc23)c1
IC50 [1]: < 0.01 µM | IC50 [2]: < 0.01 µM | IC50 [3]: < 0.01 µM | IC50 [4]: < 0.01 µM | IC50 [5]: < 0.01 µM | viability, T/C [36]: 29% | viability, T/C [6]: 25.5% | viability, T/C [7]: 24.1% | viability, T/C [8]: 25.7% | viability, T/C [9]: 26.5% | viability, T/C [10]: 28.6% | viability, T/C [38]: 23.3% | viability, T/C [12]: 24.3% | viability, T/C [13]: 21.9% | viability, T/C [14]: 21.8% | viability, T/C [15]: 23% | viability, T/C [16]: 25.7% | viability, T/C [40]: 27.5% | viability, T/C [18]: 25.7% | viability, T/C [19]: 28.4% | viability, T/C [20]: 28.2% | viability, T/C [21]: 32.7% | viability, T/C [22]: 35.3% | viability, T/C [42]: 0.95% | viability, T/C [24]: 26.9% | viability, T/C [25]: 4.54% | viability, T/C [26]: 0.8% | viability, T/C [27]: 7.93% | viability, T/C [28]: 30.4% | viability, T/C [44]: 0.72% | viability, T/C [30]: 0.14% | viability, T/C [31]: 0.36% | viability, T/C [32]: 0.45% | viability, T/C [33]: 0.41% | viability, T/C [34]: 0.21%
